Assay results taken from patent US9512084B2, “Amino pyrimidine derivatives” (Novartis AG, priority 2013, dated 2016).

Experiments:
Btk = Btk (Rattus norvegicus, UniProt Q5S255); experiment: Inhibition of Btk activity in blood (in vitro B cell activation assay, CD86, rat whole blood); type: cell-based; conditions: Lewis rat whole blood diluted to 50%, anti-rat IgM + rat IL-4, 24 hours, CD86 on CD45RA positive B cells
Description: Alternatively, the inhibitory activity of the present compounds in blood was assessed in the following in vitro B cell activation assay. Whole blood was collected from the abdominal aorta of anaesthetized adult male Lewis rats and was anticoagulated with 100 U/ml sodium heparin. Blood was then diluted to 50% with high glucose DMEM (Amimed) supplemented with […] penicillin, […], 2 mM L-glutamin, 50 mg/ml dextran 40 and 5% FCS (Fetaclone I, Gibco). Then, 190 μl prediluted blood was mixed in 96 well U-bottomed microtiter plates (Nunc) with 10 μl of serial dilutions of test compounds in DMSO. […] Activation of B cells was measured by flow cytometry after staining for the B cell subset with PE-Cy5-labeled anti-ratCD45RA (Beckton-Dickinson) and for the activation marker CD86 (PE-labeled anti-rat CD86 (Beckton-Dickinson). All staining procedures were performed at RT for 30 min in the dark in 96-deep well V-bottomed microtiter plates (Corning) with BD Lysing Solution (Beckton-Dickinson).
Cytometric data was acquired on a FACScalibur flow cytometer (BD Biosciences) and the subpopulation of lymphocytes were gated according to size and granularity and further analyzed for expression of CD45RA and the activation markers. Data for the inhibition of B cell activation were calculated from the percentage of cells positively stained for activation markers within the CD45RA positive population.

[1] = molecular target: full-length human recombinant BTK (Homo sapiens (Human), UniProt Q06187); experiment: Inhibition of Btk enzymatic activity (biochemical enzyme assay, Caliper); conditions: 6.4 nM enzyme solution, 164 μM ATP solution, 30° C., 60 minutes
Sequence of full-length human recombinant BTK (Q06187 whole entry): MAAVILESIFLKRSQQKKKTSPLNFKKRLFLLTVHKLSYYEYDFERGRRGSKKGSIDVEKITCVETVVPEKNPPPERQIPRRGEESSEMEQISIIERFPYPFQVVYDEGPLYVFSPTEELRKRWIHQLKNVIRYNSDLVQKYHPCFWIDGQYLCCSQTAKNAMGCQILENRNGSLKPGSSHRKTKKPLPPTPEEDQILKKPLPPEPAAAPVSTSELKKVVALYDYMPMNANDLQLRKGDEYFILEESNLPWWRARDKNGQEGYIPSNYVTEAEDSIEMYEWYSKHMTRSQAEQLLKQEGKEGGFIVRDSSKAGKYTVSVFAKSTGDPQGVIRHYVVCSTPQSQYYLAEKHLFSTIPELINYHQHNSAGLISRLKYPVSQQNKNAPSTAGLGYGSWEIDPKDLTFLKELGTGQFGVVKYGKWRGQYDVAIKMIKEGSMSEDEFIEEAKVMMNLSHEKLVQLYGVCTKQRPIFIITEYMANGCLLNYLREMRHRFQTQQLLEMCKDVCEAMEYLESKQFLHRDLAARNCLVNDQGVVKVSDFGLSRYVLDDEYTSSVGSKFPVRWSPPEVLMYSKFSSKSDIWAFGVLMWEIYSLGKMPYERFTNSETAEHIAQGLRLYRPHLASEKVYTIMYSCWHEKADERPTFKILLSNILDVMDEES
Description: The inhibitory activity of the present compounds against Btk was assessed in a biochemical enzyme assay. […] The assay plates were prepared by addition of 50 nl per well of compound solution in 90% DMSO. […] Kinase reactions were analyzed on a Caliper LC3000 workstation by separating phosphorylated and unphosphorylated peptides and kinase activities were calculated from the amounts of newly formed phospho-peptide.

Sequence of Btk (Q5S255 1-660): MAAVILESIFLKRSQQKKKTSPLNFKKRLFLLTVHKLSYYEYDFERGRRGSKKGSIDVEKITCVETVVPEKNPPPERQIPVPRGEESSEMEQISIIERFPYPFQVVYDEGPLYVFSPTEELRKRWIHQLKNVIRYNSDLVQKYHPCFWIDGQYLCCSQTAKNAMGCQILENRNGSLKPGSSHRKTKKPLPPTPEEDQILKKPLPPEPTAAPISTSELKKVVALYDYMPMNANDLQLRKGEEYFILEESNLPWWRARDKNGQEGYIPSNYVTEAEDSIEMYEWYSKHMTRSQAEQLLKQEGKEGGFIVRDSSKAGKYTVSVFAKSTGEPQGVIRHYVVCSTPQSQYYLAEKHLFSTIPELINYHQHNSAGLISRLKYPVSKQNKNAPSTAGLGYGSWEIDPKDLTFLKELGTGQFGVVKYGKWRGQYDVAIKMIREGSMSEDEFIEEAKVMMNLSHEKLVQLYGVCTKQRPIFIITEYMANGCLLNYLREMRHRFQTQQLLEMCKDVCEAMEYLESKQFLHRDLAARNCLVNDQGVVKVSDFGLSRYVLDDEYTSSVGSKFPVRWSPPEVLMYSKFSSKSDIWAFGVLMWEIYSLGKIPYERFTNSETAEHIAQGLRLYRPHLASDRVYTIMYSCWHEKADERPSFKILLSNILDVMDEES

Row | SMILES | IC50 (Btk) [nM] | IC50 [1] [nM]
1 | C=CC(=O)N1C[C@H](OC)C[C@H]1COc1c(N)ncnc1-c1cc(F)cc(N2CCc3cc(C4CC4)ccc3C2=O)c1CO [Example 28, 2-(3-(5-(((2S,4R)-1-Acryloyl-4-methoxypyrrolidin-2-yl)methoxy)-6-aminopyrimidin-4-yl)-5-fluoro-2-(hydroxymethyl)phenyl)-6-cyclopropyl-3,4-dihydroisoquinolin-1(2H)-one] | 33 | 1
2 | CC#CC(=O)N1C[C@H](F)C[C@H]1COc1c(N)ncnc1-c1cc(F)cc(NC(=O)c2ccc(C3CC3)cc2F)c1C [Example 32, N-(3-(6-Amino-5-(((2S,4R)-1-(but-2-ynoyl)-4-fluoropyrrolidin-2-yl)methoxy)pyrimidin-4-yl)-5-fluoro-2-methylphenyl)-4-cyclopropyl-2-fluorobenzamide] | 55 | 4
3 | C=CC(=O)N1C[C@H](F)C[C@H]1COc1c(N)ncnc1-c1cc(F)cc(NC(=O)c2ccc(C3CC3)cc2F)c1C [Example 31, N-(3-(5-(((2S,4R)-1-Acryloyl-4-fluoropyrrolidin-2-yl)methoxy)-6-aminopyrimidin-4-yl)-5-fluoro-2-methylphenyl)-4-cyclopropyl-2-fluorobenzamide] | 25 | 2
4 | C=CC(=O)NC1(COc2c(N)ncnc2-c2cc(F)cc(NC(=O)c3ccc(C4CC4)cc3F)c2C)CC1 [Example 16, N-(3-(5-((1-Acrylamidocyclopropyl)methoxy)-6-aminopyrimidin-4-yl)-5-fluoro-2-methylphenyl)-4-cyclopropyl-2-fluorobenzamide] | 558 | 15
5 | C=CC(=O)N(C)CCOc1c(N)ncnc1-c1cccc(-n2ccc3cc(C4CC4)cc(F)c3c2=O)c1 [Example 12, N-(2-((4-Amino-6-(3-(6-cyclopropyl-8-fluoro-1-oxoisoquinolin-2(1H)-yl)phenyl)pyrimidin-5-yl)oxy)ethyl)-N-methylacrylamide] | 459 | 12
